According to article PMC7290365, “Human Induced Pluripotent Stem Cell-Derived 3D-Neurospheres Are Suitable for Neurotoxicity Screening” (Cells, 2020):
pEC50: −log10 of the molar value. Counter-ions that a name gives are not always drawn. Like-named read-outs stand apart in the source and are kept apart here.

Assays:
[1] = system: rat; set-up: method as in PubChem database (https://pubchem.ncbi.nlm.nih.gov/); conditions: ref PubChem database (https://pubchem.ncbi.nlm.nih.gov/), cited from earlier work
[2] = system: in vitro multicellular cytotoxicity; conditions: multicellular cytotoxicity "comptox" data; ref EPA's Chemical dashboard (https://comptox.epa.gov/dashboard); cited from earlier work
[3] = system: hiPSC-derived 3D neurospheres; test: cells; format: cell-based, human; conditions: for EC10 / EC25 / EC50 / pEC50: Homo sapiens, 72 h; for EC50: read-out: EC50 (cell viability) (converted); for Effect on cell viability (in words): D21, D28, D42 neurospheres
Procedure: After thawing, NSCs (generated as detailed above) were cultured on POL/L (0.002%/1 µg/cm^2) coated plates (50,000 cells/cm^2). When reached 100% confluence NSCs were propagated with Accutase treatment and single-cell suspension was plated onto a low-adherent 96-well plate with 10,000 cells/well in NMM medium. […] Samples were collected at Day 0 (D0), Day 2 (D2), and weekly intervals from the end of the 1st week (D7) until the end of the 6th week (D14, D21, D28, D35, and D42).
Eleven well-known compounds were tested in 7 different concentrations to generate concentration-response curves. The tested compounds with the used concentrations are detailed in Table S3. […] In each assay plate, 4 technical replicates were applied from each sample and 3 biological replicate assays were run (n = 3). The 3D cell cultures were exposed to the toxicants for 72 h (exposure schemes are detailed in Figure 5A or Figure 6A or Figure 7A). Vehicle control was used as a regular medium supplemented with 0.1% DMSO.
ATP viability assay was performed with CellTiter-Glo® 3D Cell Viability Assay, according to the manufacturer’s protocol (Promega). Neurospheres were lysed with 100 μL CellTiter-Glo® 3D Reagent for 60 min at RT. Luminescence signal was recorded with a Thermo VarioScan Flash (Thermo Fisher Scientific) plate reader.
All results were analyzed using Prism 5 (GraphPad Software, La Jolla, CA, USA) and handled in Microsoft Office 2010 (Microsoft, Redmond, WA, USA) software. For normalization of the concentration response, the average values of positive control were used as 0% and the average of vehicle control served as 100%. Four parameter curve fitting methods were used to determine EC10 and EC50 values, where the data on the graphs represent the average of three biological replicates. The “n” value corresponds to the number of biological replicates for each tested concentration. Analysis of data is presented as the mean ± SEM. Significance of data was determined with paired T test for RT-qPCR (* p < 0.01) and with One-way ANOVA for concentration response (* p < 0.05; ** p < 0.01).

[4] = system: humans; conditions: ref PubChem database (https://pubchem.ncbi.nlm.nih.gov/), cited from earlier work
[5] = system: hiPSC-derived 3D neurospheres; test: TUNEL apoptosis assay on cryosectioned 3D neurospheres; format: cell-based, human; conditions: 0.5 µM for 72 h; average, in each stage (D21, D28, D42)
Procedure: Embedding and cryosectioning of 3D samples were performed as above. To detect apoptotic activity, the DeadEnd™ Colorimetric TUNEL System (Promega) was used on the middle cryosections (highest diameter) of the spheroids, following the instructions of the manufacturer. In brief, apoptosis was detected by immersing the slides in PBS for 5 min (at RT), adding 20 μg/mL Proteinase K solution and incubating for 10–30 min (at RT). After 5–10 min treatment in Equilibration buffer, recombinant terminal deoxynucleotidyl transferase (rTdT) was added to the reaction mixture. Next, the sections were incubated for 60 min at 37 °C inside of a humidified chamber to allow the end-labelling reaction to occur. The reaction was terminated by immersing the slides in saline-sodium citrate for 15 min (RT). Endogenous peroxidases were blocked by immersing the slides in 0.3% hydrogen peroxide in PBS for 3–5 min (RT). Streptavidin-HRP was added to slides, incubated for 30 min (RT), stained with diaminobenzidine (DAB) solution for 5 min until a light brown background appeared. For hematoxylin–eosin (HE) staining Mayer’s Hematoxylin solution was used for 3 min. […] Five Ctrl and five ROT-treated spheroids were randomly selected, and middle sections were analyzed from each differentiation stage (D21, D28, and D42) samples in three experiments (n = 3).

[6] = system: LUHMES cells; conditions: cited from earlier work
[7] = system: XBP1(S); test: XBP1 assay of endoplasmic reticulum stress; format: cell-based, human; conditions: listed as ROT
Procedure: Upon accumulation of unfolded proteins in the endoplasmic reticulum (ER), a 26-nucleotide fragment from the X-box binding protein 1 mRNA (XBP1(U)) is removed with a special splicing mechanism. This shorter mRNA (XBP1(S)) is a frequently used marker of ER-stress. To study the expression of XBP1(S), previously described primers and our own primers were used (Table S2). As a positive control, cells were treated with 5 µM and 10 µM Tunicamycin to induce ER-stress. RT-PCR reactions were performed and analyzed as above, using Phusion Hot Start II High-Fidelity DNA Polymerase and 20 ng of the cDNA samples.

[8] = system: LUHMES cells; conditions: LUHMES cells exposed; literature value, reference not given; cited from earlier work
[9] = D21 stage, 72 h exposure, investigated concentration range
[10] = D21 3D neurospheres, 72 h exposure, read-out: EC10 (cell viability) (converted)
[11] = D21 3D neurospheres, 72 h exposure, read-out: EC25 (cell viability) (converted)
[12] = D21 3D neurospheres, 72 h exposure
[13] = D28 3D neurospheres, 72 h exposure, read-out: EC10 (cell viability) (converted)
[14] = D28 3D neurospheres, 72 h exposure, read-out: EC25 (cell viability) (converted)
[15] = D28 3D neurospheres, 72 h exposure
[16] = D42 3D neurospheres, 72 h exposure, read-out: EC10 (cell viability) (converted)
[17] = D42 3D neurospheres, 72 h exposure, read-out: EC25 (cell viability) (converted)
[18] = D42 3D neurospheres, 72 h exposure
[19] = read-out: EC10 (cell viability), D21 3D neurospheres, 72 h exposure
[20] = read-out: EC10 (cell viability), D42 3D neurospheres, 72 h exposure
[21] = read-out: EC25 (cell viability), D21 3D neurospheres, 72 h exposure
[22] = read-out: EC25 (cell viability), D28 3D neurospheres, 72 h exposure
[23] = read-out: EC25 (cell viability), D42 3D neurospheres, 72 h exposure
[24] = investigated concentration range
[25] = read-out: EC10 (cell viability)
[26] = read-out: EC25 (cell viability)
[27] = read-out: EC50 (cell viability)

| Structure (SMILES) | In vitro cytotoxicity limit [2] | Effect on viability of 3D neurospheres (in words) [3, 9] | EC10 [3, 10] | EC25 [3, 11] | EC50 [3, 12] | EC10 [3, 13] | EC25 [3, 14] | EC50 [3, 15] | EC10 [3, 16] | EC25 [3, 17] | EC50 [3, 18] | further results |
| --- | --- | --- | --- | --- | --- | --- | --- | --- | --- | --- | --- | --- |
| Oc1c(Cl)cc(Cl)c(Cl)c1Cc1c(O)c(Cl)cc(Cl)c1Cl [Hexachlorophene, 2,2′-Methylenebis(3,4,6-trichlorophenol)] | 1.86 µM | had a strong effect on the viability, but did not kill all the cells | 0.631 µM | 3.39 µM | 18.2 µM | 0.257 µM | 1.62 µM | 10.2 µM | 0.0661 µM | 0.457 µM | 3.16 µM | LD50 ([1]; oral): 66 mg/kg |
| COc1cc2c(c(OC)c1OC)-c1ccc(OC)c(=O)cc1[C@@H](NC(C)=O)CC2 [Colchicine, (S)-N-(5,6,7,9-Tetrahydro-1,2,3,10-tetramethoxy-9-oxobenzo[a]heptalen-7-yl)acetamide] | 0.02 µM | had a strong effect on the viability, but did not kill all the cells |  |  |  |  |  |  |  |  |  | Probable oral lethal dose in humans ([4]; oral): < 5 mg/kg; EC10 [3, 19]: 0.000257 µM; EC10 [3, 20]: 0.000282 µM; EC25 [3, 21]: 0.00912 µM; EC25 [3, 22]: 0.0129 µM; EC25 [3, 23]: 0.00575 µM |
| C=C(C)[C@H]1Cc2c(ccc3c2O[C@@H]2COc4cc(OC)c(OC)cc4[C@@H]2C3=O)O1 [Rotenone] | 0.22 µM |  |  |  |  |  |  |  |  |  |  | Probable lethal dose in human [4]: 300 to 500 mg/kg; Increase in the apoptotic cell number compared to the control [5]: 15%; Neurite outgrowth of LUHMES cells (in words) [6]: prominent neurite growth inhibition; EC10 [3, 19]: 0.0129 µM; EC10 ([3]; read-out: EC10 (cell viability), D28 3D neurospheres, 72 h exposure): 0.00646 µM; EC10 [3, 20]: 0.00447 µM; EC25 [3, 21]: 0.0562 µM; EC25 [3, 22]: 0.0347 µM; EC25 [3, 23]: 0.0331 µM; pEC50 ([3]; read-out: EC50 (cell viability), D21 3D neurospheres, 72 h exposure): 6.61; pEC50 ([3]; read-out: EC50 (cell viability), D28 3D neurospheres, 72 h exposure): 6.74; pEC50 ([3]; read-out: EC50 (cell viability), D42 3D neurospheres, 72 h exposure): 6.62; ER-stress inducing effect (XBP1 assay) [7]: no ER-stress inducing effect |
| CCCC(CCC)C(=O)O [Valproic acid, 2-Propylpentanoic acid] |  | minimal effect on the viability | > 398 µM | > 398 µM | > 398 µM | > 398 µM | > 398 µM | > 398 µM | > 398 µM | > 398 µM | > 398 µM | pEC50 [8]: < 4.00; Neurite outgrowth of LUHMES cells (in words) [6]: significant inhibition of neurite outgrowth; EC50 (cell viability) [3, 12]: > 2.6 log µM; Effect on cell viability (in words) [3, 24]: no detectable impact |
| CO[C@H]1/C=C/O[C@@]2(C)Oc3c(C)c(O)c4c(O)c(c(/C=N/N5CCN(C)CC5)c(O)c4c3C2=O)NC(=O)/C(C)=C\C=C\[C@H](C)[C@H](O)[C@@H](C)[C@@H](O)[C@@H](C)[C@H](OC(C)=O)[C@@H]1C [Rifampicin, 3-(4-Methylpiperazinyliminomethyl)rifamycin] |  |  |  |  |  |  |  |  |  |  |  | Probable lethal oral dose in humans ([4]; oral): 14 to 60 g; LD50 ([1]; route not given): 1570 mg/kg; EC50 (cell viability) [3]: > 2 log µM; Effect on viability of 3D neurospheres (in words) [3]: reduced the viability; EC10 [3, 25]: > 100 µM; EC25 [3, 26]: > 100 µM; pEC50 [3, 27]: < 4.00 |
| COc1cccc2c1C(=O)c1c(O)c3c(c(O)c1C2=O)C[C@@](O)(C(=O)CO)C[C@@H]3O[C@H]1C[C@H](N)[C@H](O)[C@H](C)O1 [Doxorubicin, Doxorubicin hydrochloride] |  | caused maximum cell death | 0.263 µM | 1.1 µM | 4.68 µM | 2.14 µM | 5.25 µM | 12.9 µM | 3.09 µM | 7.94 µM | 20.9 µM | LD50 ([1]; subcutaneous): • - Intercalating chemotherapy drug; • - inhibiting the movement of topoisomerase II, which leads to the blocking of both replication and transcription; and • - LD50: 21.8 mg/kg (rat, subcutaneous). |
| CC(=O)Nc1ccc(O)cc1 [Paracetamol, 4′-Hydroxyacetanilide] |  |  |  |  |  |  |  |  |  |  |  | Acute overdose at which hepatic toxicity occurred in humans [4]: > 10 g; LD50 ([1]; oral): 2400 mg/kg; EC50 (cell viability) [3]: > 2 log µM; Effect on viability of 3D neurospheres (in words) [3]: minimal effect on the viability; EC10 [3, 25]: > 100 µM; EC25 [3, 26]: > 100 µM; pEC50 [3, 27]: < 4.00 |
| C[n+]1ccc(-c2cc[n+](C)cc2)cc1 [Paraquat, 1,1′-Dimethyl-4,4′-bipyridinium dichloride hydrate] |  | caused maximum cell death | 14.1 µM | 33.1 µM | 77.6 µM | 22.4 µM | 46.8 µM | 95.5 µM | 12.3 µM | 27.5 µM | 61.7 µM | Probable oral lethal dose in humans ([4]; oral): • - Herbicide; • - neurotoxic: occupational exposures leading to Parkinson’s disease [74]; • - widely investigated neurotoxic mechanism [75, 76]; and • - probable oral lethal dose in humans is 35 mg/kg. |
| [Cl][Hg][Cl] [Mercury(II) chloride] | 1.37 µM | caused maximum cell death |  |  |  |  |  |  |  |  |  | Probable oral lethal dose in humans ([4]; oral): 5 to 50 mg/kg; EC10 (cell viability) [3, 12]: 1.1 log µM; EC25 (cell viability) [3, 12]: 1.5 log µM; EC50 (cell viability) [3, 12]: 1.87 log µM; EC10 (cell viability) [3, 15]: 1.4 log µM; EC25 (cell viability) [3, 15]: 1.60 log µM; EC50 (cell viability) [3, 15]: 1.83 log µM; EC10 (cell viability) [3, 18]: 1.34 log µM; EC25 (cell viability) [3, 18]: 1.54 log µM; EC50 (cell viability) [3, 18]: 1.74 log µM |
| C=CC(N)=O [Acrylamide, 2-Propenamide] |  |  |  |  |  |  |  |  |  |  |  | EC10 (cell viability) [3]: > 3.5 log µM; EC25 (cell viability) [3]: > 3.5 log µM |
| CC(C)Cc1ccc(C(C)C(=O)O)cc1 (stereo not drawn) [Ibuprofen, α-Methyl-4-(isobutyl)phenylacetic acid] |  | did not decrease the viability | > 100 µM | > 100 µM | > 100 µM | > 100 µM | > 100 µM | > 100 µM | > 100 µM | > 100 µM | > 100 µM | Consumed dose at which overdose symptoms appear ([4]; individuals): > 99 mg/kg; EC50 (cell viability) [3, 12]: > 2 log µM; Effect on cell viability (in words) [3, 24]: no effect on neuronal cell viability |
